Results published in patent publication US9518065B2, “IRAK inhibitors and uses thereof” (NIMBUS IRIS, INC., priority 2013, dated 2016).
Like-named read-outs stand apart in the source and are kept apart here.

Tests used:
[1] = system: TNFα and IL8 production in THP-1 cells; assay: LPS induced cytokine (TNFα and IL8) production assay in THP-1 cells; assay type: cell-based; details: Homo sapiens, 300 ng/mL LPS
Protocol: Provided compounds were also assayed in an LPS (Lipopolysacharide) or R848 (TLR-7 agonist) induced cytokine (TNFα and IL8) production assay in THP-1 cells, human white blood cells (hWBC), and whole blood. The exemplary protocol for this assay in THP-1 cells was as follows below.
THP-1 cells from ATCC (TIB-202) were cultured in RPMI Medium 1640 (Invitrogen, Cat No. A10491-01), 10% fetal bovine serum (Invitrogen, Cat No. 10099141, Lot No. 8172882) containing 100 U/mL Penicillin, 100 μg/mL streptomycin (Invitrogen, Cat No. 15140-122), and 50 uM 2-Mercaptoethanol (Invitrogen, Cat No. 21985023). LPS-EK ultra pure (Invivogen, Cat No. tlrl-peklps) was used to induce IL8 and TNFα production, that was detected in the cell culture supernatant by IL8 HTRF kit (Cisbio, Cat No. 62IL8PEB) and TNFα HTRF kit (Cisbio, Cat No. 62TNFPEB), as per manufacturer instructions. Cells were cultured in 96 well assay plates at 100,000 cells per well, and compounds diluted in final 0.3% DMSO were pre-incubated with cells for 1 hour prior to stimulation with 300 ng/mL LPS. Cytokine production in cell supernatant was measured at 5 hours for TNFα and IL8 production, and for 16 hours for IL8 production and assessment of cell viability.
The compound numbers correspond to the compound numbers in Table 1. […] “NA” stands for “not assayed.”

IRAK4 = molecular target: T1, IRAK4 (Homo sapiens, UniProt Q9NWZ3); assay: IRAK-4 activity inhibition assay (Caliper); assay type: biochemical; details: 3.5 nM IRAK4, 37 μM ATP, 1.5 μM Peptide 8
T1 construct: purchased CARNA Bioscience 09-145
T1 sequence (Q9NWZ3 1-460): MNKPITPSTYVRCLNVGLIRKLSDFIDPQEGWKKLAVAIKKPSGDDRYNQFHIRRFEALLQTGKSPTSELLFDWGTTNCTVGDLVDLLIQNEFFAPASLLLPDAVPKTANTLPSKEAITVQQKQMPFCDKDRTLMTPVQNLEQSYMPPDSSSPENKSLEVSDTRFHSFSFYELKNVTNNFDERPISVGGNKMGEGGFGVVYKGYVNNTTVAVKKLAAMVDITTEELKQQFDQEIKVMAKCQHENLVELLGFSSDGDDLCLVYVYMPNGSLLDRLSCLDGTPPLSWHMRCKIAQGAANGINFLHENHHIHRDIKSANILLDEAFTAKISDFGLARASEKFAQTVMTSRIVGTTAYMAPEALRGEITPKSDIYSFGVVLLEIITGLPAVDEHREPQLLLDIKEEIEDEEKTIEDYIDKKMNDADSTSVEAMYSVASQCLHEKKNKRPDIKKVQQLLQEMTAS
Protocol: A 1× kinase base buffer was prepared from 50 mM HEPES, pH 7.5 and 0.0015% Brij-35. A stop buffer was prepared from 100 mM HEPES, pH 7.5, 0.015% Brij-35, 0.2% Coating Reagent #3, and 50 mM EDTA.
Test compound was diluted to 50× of the final desired highest inhibitor concentration in reaction by 100% DMSO. 100 ul of this compound dilution was transferred to a well in a 96-well plate. For example, if desired highest inhibitor concentration in IC50 determination is 100 uM, then prepare 5000 uM of compound DMSO solution in this step.
Test compound was serially diluted by transferring 30 μl to 60 μl of 100% DMSO in the next well and so forth for a total of 10 concentrations. 100 μl of 100% DMSO was added to two empty wells for no compound control and no enzyme control in the same 96-well plate.
A new 96-well plate was marked as intermediate plate. 5 μl of compound serial dilution was transferred from source plate to the corresponding wells of the intermediate plate. 45 μl of 1× kinase base buffer (KB buffer) was added to each well of the intermediate plate. The intermediate plate was placed for 10 min on a shaker.
5 μl of each well was transferred from the 96-well intermediate plate to a 384-well plate in duplicates. For example, A1 of the 96-well plate is transferred to A1 and A2 of the 384-well plate. A2 of the 96-well plate is transferred to A3 and A4 of the 384-well plate, and so on.
IRAK4 and DTT in 1× kinase base buffer was added. The 2.5× enzyme mix contained 8.8 nM IRAK4 and 5 mM DTT.
Peptide 8, ATP, MgCl2 and MnCl2 were added in the 1× kinase base buffer. The 2.5× peptide mix contained 3.75 μM peptide 8, 92.5 μM ATP, 12.5 mM MgCl2 and 2.5 mM MnCl2.
Assay plate already contained 5 μl of compound in 10% DMSO. Added 10 μl of 2.5× enzyme solution to each well of the 384-well assay plate, except no enzyme control wells. The final concentration of IRAK4 in reaction was 3.5 nM. Added 10 μl of 1× kinase base buffer to no enzyme control wells in the assay plate. Incubated at room temperature for 10 min.
Added 10 μl of 2.5× peptide solution to each well of the 384-well assay plate. The final concentration of Peptide 8 and ATP was 1.5 μM and 37 μM, respectively. Incubated at 28° C. for 40 minutes. Added 25 μl of stop buffer to stop reaction. Collected data on Caliper.
Copied conversion % data from Caliper program. Converted conversion % values to percent inhibition values. Percent inhibition=(max-conversion %)/(max-min)*100, where “max” means the conversion % of DMSO control and “min” means the conversion % of no enzyme control.
The compound numbers correspond to the compound numbers in Table 1. Compounds having an activity designated as “A” provided an IC50≦1 μM; compounds having an activity designated as “B” provided an IC50 of 1-5 μM; compounds having an activity designated as “C” provided an IC50 of ≧5 μM. “NA” stands for “not assayed.”

[2] = 5 hours, read-out: TNFα production IC50
[3] = 16 hours, read-out: IL8 (16 h) production IC50

SMILES | IC50 [1, 2] [nM] | IC50 [1, 3] [nM] | IC50 (IRAK4) [nM]
CCn1cc(Nc2nc(N[C@H]3CC[C@H](N4CCOCC4)CC3)c3nc(C)sc3n2)cn1 [Compound I-36, N5-(1-ethyl-1H-pyrazol-4-yl)-2-methyl-N7-((1r,4r)-4-morpholinocyclohexyl)thiazolo[5,4-d]pyrimidine-5,7-diamine] | 250 to 500 | ≤ 250 | ≤ 1000
CCc1nc2c(N[C@H]3CC[C@H](N4CCOCC4)CC3)nc(Nc3cnn(CCCS(C)(=O)=O)c3)nc2s1 [Compound I-27, 2-ethyl-N5-(1-(3-(methylsulfonyl)propyl)-1H-pyrazol-4-yl)-N7-((1r,4r)-4-morpholinocyclohexyl)thiazolo[5,4-d]pyrimidine-5,7-diamine] | 250 to 500 | ≤ 250 | ≤ 1000
CCc1nc2c(N[C@H]3CC[C@H](N4CCOCC4)CC3)nc(Nc3cnn(CCOCCO)c3)nc2s1 [Compound I-28, 2-(2-(4-((2-ethyl-7-(((1r,4r)-4-morpholinocyclohexyl)amino)thia-zolo[5,4-d]pyrimidin-5-yl)amino)-1H-pyrazol-1-yl)ethoxy)ethan-1-ol] | 250 to 500 | ≤ 250 | ≤ 1000
CC(O)c1nc2c(N[C@H]3CC[C@H](N4CCOCC4)CC3)nc(Nc3cnn(C)c3)nc2s1 (some centres unmarked) [Compound I-35, 1-(5-((1-methyl-1H-pyrazol-4-yl)amino)-7-(((1r,4r)-4-morpholino-cyclohexyl)amino)thiazolo[5,4-d]pyrimidin-2-yl)ethan-1-ol] | ≥ 500 | ≥ 500 | ≤ 1000
Cn1cc(Nc2nc(N[C@H]3CC[C@H](N4CCOCC4)CC3)c3nc(CO)sc3n2)cn1 [Compound I-37, (5-((1-methyl-1H-pyrazol-4-yl)amino)-7-(((1r,4r)-4-morpholino-cyclohexyl)amino)thiazolo[5,4-d]pyrimidin-2-yl)methanol] | ≥ 500 | ≥ 500 | ≤ 1000
CCc1nc2c(N[C@H]3CC[C@H](N4CCC(F)(F)CC4)CC3)nc(Nc3cnn(C4CCOCC4)c3)nc2s1 [Compound I-19, 2-ethyl-5-N-[1-(oxan-4-yl)-1H-pyrazol-4-yl]-7-N-[trans-4-(4,4-difluoropiperidin-1-yl)cyclohexyl]-[1,3]thiazolo[5,4-d]pyrimidine-5,7-diamine] | ≤ 250 | – | ≤ 1000
CCc1nc2c(N[C@H]3CC[C@H](N4CCC5(CC4)CC5)CC3)nc(Nc3cnn(CCOCCO)c3)nc2s1 [Compound I-33, 2-(2-(4-((7-(((1r,4r)-4-(6-azaspiro[2.5]octan-6-yl)cyclohexyl)-amino)-2-ethylthiazolo[5,4-d]pyrimidin-5-yl)amino)-1H-pyrazol-1-yl)ethoxy)ethan-1-ol] | ≤ 250 | ≤ 250 | ≤ 1000
CCc1nc2c(N[C@H]3CC[C@H](N4CCOCC4)CC3)nc(Nc3cnn(CCO)c3)nc2s1 [Compound I-29, 2-(4-((2-ethyl-7-(((1r,4r)-4-morpholinocyclohexyl)-amino)thiazolo[5,4-d]pyrimidin-5-yl)amino)-1H-pyrazol-1-yl)ethan-1-ol] | ≥ 500 | ≤ 250 | ≤ 1000

Results, then the compound that gave them:

IC50 [1, 2] [nM] | IC50 [1, 3] [nM] | IC50 (IRAK4) [nM] | SMILES
≤ 250 | ≤ 250 | ≤ 1000 | CCc1nc2c(N[C@H]3CC[C@H](N4CCOCC4)CC3)nc(Nc3cnn(C(C)C)c3)nc2s1 [Compound I-8, 2-ethyl-N5-(1-isopropyl-1H-pyrazol-4-yl)-N7-((1r,4r)-4-morpholinocyclohexyl)thiazolo[5,4-d]pyrimidine-5,7-diamine]
250 to 500 | ≤ 250 | ≤ 1000 | CCc1nc2c(N[C@H]3CC[C@H](N4CCC5(CC4)CC5)CC3)nc(Nc3cnn(C4CCOCC4)c3)nc2s1 [Compound I-23, N7-((1r,4r)-4-(6-azaspiro[2.5]octan-6-yl)cyclohexyl)-2-ethyl-N5-(1-(tetrahydro-2H-pyran-4-yl)-1H-pyrazol-4-yl)thiazolo[5,4-d]pyrimidine-5,7-diamine]
≤ 250 | ≤ 250 | ≤ 1000 | CCc1nc2c(N[C@H]3CC[C@H](N4CCOCC4)CC3)nc(Nc3cnn(C4CCS(=O)(=O)CC4)c3)nc2s1 [Compound I-10, 4-(4-((2-ethyl-7-(((1r,4r)-4-morpholino-cyclohexyl)amino)-thiazolo[5,4-d]pyrimidin-5-yl)amino)-1H-pyrazol-1-yl)tetrahydro-2H-thiopyran 1,1-dioxide]
≤ 250 | ≤ 250 | ≤ 1000 | CCc1nc2c(N[C@H]3CC[C@H](N4CCOCC4)CC3)nc(Nc3cnn(C4CCC(O)CC4)c3)nc2s1 (some centres unmarked) [Compound I-32, 4-(4-((2-ethyl-7-(((1r,4r)-4-morpholinocyclohexyl)-amino)thiazolo[5,4-d]pyrimidin-5-yl)amino)-1H-pyrazol-1-yl)cyclohexan-1-ol]
